In patent EP4745137A1 (Gluetacs Therapeutics (Shanghai) Co., Ltd., priority 2023, dated 2025):

Assays:
Assay type in all cases: cell-based
Details in all cases: 24 hours of compound treatment, 50 nM and 500 nM tested (concentration behind the class not stated)
WEE1 = biological target: T1, WEE1 (Homo sapiens, UniProt P30291+Q96SW2); assay: Western-blot assay of substrate protein degradation in hPBMCs, WEE1
T1 construct: endogenous in cells; host or cells: hPBMCs (Milecell Biotechnologies)

GSPT1 = biological target: T2, GSPT1 (Homo sapiens, UniProt P15170+Q96SW2); assay: Western-blot assay of substrate protein degradation in hPBMCs, GSPT1
T2 construct: endogenous in cells; host or cells: hPBMCs (Milecell Biotechnologies)

IKZF1 = biological target: T3, IKZF1 (Homo sapiens, UniProt Q13422+Q96SW2); assay: Western-blot assay of substrate protein degradation in hPBMCs, IKZF1
T3 construct: endogenous in cells; host or cells: hPBMCs (Milecell Biotechnologies)

IKZF3 = biological target: T4, IKZF3 (Homo sapiens, UniProt Q96SW2+Q9UKT9); assay: Western-blot assay of substrate protein degradation in hPBMCs, IKZF3
T4 construct: endogenous in cells; host or cells: hPBMCs (Milecell Biotechnologies)

IKZF2 = biological target: T5, IKZF2 (Homo sapiens, UniProt Q96SW2+Q9UKS7); assay: Western-blot assay of substrate protein degradation in hPBMCs, IKZF2
T5 construct: endogenous in cells; host or cells: hPBMCs (Milecell Biotechnologies)

CK1α = biological target: T6, CK1α (Homo sapiens, UniProt P48729+Q96SW2); assay: Western-blot assay of substrate protein degradation in hPBMCs, CK1α
T6 construct: endogenous in cells; host or cells: hPBMCs (Milecell Biotechnologies)

T4 sequence (Q9UKT9 whole entry): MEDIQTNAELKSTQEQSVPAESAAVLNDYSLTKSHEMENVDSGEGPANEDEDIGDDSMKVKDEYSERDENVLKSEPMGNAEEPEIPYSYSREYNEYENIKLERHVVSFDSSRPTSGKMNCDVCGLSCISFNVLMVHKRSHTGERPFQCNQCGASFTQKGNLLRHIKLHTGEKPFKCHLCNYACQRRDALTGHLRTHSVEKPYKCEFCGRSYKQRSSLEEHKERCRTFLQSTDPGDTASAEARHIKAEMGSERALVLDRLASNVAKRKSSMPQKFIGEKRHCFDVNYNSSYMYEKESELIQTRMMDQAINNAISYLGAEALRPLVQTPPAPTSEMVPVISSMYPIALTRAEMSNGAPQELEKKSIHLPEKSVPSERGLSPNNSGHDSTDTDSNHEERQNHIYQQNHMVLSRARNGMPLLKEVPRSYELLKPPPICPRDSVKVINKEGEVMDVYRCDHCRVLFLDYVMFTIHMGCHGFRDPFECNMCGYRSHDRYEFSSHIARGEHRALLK
T4 sequence (Q96SW2 whole entry): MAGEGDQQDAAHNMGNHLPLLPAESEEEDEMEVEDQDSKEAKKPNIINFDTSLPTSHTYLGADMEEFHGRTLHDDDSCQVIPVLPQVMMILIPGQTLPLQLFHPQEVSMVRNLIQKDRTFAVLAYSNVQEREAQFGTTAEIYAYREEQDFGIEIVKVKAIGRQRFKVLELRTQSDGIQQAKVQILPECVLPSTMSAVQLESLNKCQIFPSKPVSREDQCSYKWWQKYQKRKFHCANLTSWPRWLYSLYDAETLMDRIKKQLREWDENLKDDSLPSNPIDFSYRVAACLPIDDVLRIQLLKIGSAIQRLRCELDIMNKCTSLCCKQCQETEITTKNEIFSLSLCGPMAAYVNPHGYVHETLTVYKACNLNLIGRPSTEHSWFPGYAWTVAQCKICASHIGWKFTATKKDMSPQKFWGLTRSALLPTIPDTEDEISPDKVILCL
T4 sequence (Q16531 whole entry partner): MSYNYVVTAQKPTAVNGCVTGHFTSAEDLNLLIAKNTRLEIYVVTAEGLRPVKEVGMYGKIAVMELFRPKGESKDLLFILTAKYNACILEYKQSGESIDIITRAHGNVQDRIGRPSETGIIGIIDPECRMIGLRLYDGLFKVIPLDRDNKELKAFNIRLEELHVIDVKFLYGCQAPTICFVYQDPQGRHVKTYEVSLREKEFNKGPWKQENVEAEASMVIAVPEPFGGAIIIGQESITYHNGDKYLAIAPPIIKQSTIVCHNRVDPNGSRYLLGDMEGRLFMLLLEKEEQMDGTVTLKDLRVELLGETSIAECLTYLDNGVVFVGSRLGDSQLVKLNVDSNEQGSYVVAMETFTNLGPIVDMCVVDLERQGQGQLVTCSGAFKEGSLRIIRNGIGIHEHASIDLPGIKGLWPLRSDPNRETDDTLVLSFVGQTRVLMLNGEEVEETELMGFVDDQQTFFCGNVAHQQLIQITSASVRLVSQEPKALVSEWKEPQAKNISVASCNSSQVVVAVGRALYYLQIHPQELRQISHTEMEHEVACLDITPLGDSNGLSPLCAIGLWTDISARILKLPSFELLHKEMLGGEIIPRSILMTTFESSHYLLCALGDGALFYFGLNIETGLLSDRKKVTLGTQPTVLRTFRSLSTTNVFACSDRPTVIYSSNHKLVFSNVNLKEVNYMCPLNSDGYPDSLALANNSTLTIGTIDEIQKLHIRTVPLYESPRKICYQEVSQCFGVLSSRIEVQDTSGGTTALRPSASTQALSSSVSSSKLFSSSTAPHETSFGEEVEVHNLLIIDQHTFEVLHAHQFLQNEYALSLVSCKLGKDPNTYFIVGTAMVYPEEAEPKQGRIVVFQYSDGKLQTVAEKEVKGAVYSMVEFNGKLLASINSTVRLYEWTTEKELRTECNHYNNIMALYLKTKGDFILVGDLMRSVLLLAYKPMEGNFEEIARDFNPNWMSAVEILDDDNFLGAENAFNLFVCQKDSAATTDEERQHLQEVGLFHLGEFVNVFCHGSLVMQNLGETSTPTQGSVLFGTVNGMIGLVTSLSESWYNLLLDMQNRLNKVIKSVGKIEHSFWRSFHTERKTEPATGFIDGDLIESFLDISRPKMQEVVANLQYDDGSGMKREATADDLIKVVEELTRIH
T1 sequence (P30291 whole entry): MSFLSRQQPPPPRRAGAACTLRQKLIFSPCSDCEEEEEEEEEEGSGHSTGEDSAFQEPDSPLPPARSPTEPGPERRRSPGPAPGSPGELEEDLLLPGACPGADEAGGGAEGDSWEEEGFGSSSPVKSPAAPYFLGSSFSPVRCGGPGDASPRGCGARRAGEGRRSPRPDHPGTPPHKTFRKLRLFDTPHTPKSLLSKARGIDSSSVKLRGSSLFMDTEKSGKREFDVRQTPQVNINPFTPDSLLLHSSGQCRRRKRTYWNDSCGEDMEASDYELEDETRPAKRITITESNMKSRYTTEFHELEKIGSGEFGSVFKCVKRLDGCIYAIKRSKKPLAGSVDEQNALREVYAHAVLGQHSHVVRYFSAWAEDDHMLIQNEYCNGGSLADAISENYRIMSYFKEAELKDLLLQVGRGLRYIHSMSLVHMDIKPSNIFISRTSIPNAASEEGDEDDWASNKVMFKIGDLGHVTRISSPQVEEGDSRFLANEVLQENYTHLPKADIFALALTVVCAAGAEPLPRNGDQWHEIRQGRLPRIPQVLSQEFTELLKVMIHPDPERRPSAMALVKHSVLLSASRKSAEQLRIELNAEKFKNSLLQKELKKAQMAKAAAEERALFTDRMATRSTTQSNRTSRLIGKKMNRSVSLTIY
T1 sequence (Q96SW2 whole entry): as the sequence (Q96SW2 whole entry) above
T1 sequence (Q16531 whole entry partner): as the sequence (Q16531 whole entry partner) above
T5 sequence (Q9UKS7 whole entry): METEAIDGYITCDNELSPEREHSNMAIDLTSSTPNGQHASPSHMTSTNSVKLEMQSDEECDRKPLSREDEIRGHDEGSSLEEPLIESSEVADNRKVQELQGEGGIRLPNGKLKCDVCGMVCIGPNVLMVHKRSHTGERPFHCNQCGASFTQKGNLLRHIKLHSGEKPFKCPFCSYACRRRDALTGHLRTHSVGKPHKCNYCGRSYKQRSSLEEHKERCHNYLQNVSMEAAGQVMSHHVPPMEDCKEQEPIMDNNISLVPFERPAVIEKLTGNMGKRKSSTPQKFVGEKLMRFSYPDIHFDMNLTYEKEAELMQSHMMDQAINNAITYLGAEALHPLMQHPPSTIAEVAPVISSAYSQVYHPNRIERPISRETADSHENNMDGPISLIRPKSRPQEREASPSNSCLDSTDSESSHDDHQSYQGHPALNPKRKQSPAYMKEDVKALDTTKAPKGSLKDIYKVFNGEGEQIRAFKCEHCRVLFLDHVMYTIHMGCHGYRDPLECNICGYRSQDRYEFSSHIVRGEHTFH
T5 sequence (Q96SW2 whole entry): as the sequence (Q96SW2 whole entry) above
T5 sequence (Q16531 whole entry partner): as the sequence (Q16531 whole entry partner) above
T3 sequence (Q13422 whole entry): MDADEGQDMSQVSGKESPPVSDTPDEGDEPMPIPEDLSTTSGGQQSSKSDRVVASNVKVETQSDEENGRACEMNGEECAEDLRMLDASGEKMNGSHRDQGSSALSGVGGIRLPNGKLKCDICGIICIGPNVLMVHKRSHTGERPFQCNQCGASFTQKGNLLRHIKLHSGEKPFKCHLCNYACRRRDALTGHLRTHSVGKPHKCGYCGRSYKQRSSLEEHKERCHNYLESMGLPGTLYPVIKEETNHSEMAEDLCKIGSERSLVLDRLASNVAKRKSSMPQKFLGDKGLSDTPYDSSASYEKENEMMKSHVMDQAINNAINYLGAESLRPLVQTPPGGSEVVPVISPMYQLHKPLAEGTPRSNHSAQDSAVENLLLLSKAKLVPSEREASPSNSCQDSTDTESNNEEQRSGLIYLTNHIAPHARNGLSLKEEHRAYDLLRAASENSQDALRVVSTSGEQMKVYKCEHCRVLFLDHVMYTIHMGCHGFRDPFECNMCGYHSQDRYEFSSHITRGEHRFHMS
T3 sequence (Q96SW2 whole entry): as the sequence (Q96SW2 whole entry) above
T3 sequence (Q16531 whole entry partner): as the sequence (Q16531 whole entry partner) above
T2 sequence (P15170 whole entry): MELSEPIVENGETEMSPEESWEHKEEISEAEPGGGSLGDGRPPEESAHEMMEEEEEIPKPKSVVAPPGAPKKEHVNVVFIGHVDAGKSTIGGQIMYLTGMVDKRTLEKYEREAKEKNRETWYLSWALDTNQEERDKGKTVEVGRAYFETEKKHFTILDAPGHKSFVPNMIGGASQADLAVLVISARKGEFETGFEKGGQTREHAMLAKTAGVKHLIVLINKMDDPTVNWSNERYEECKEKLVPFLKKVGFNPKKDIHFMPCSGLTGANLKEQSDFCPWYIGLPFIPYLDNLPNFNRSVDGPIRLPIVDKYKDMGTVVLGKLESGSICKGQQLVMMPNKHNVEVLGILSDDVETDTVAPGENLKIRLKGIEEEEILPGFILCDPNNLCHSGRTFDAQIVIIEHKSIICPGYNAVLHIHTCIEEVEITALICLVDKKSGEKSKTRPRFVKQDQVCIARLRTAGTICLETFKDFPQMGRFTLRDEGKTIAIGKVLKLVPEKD
T2 sequence (Q96SW2 whole entry): as the sequence (Q96SW2 whole entry) above
T2 sequence (Q16531 whole entry partner): as the sequence (Q16531 whole entry partner) above

| SMILES | Weel substrate protein remaining % (WEE1) | GSPT1 substrate protein remaining % (GSPT1) | IKZF 1 substrate protein remaining % (IKZF1) | IKZF3 substrate protein remaining % (IKZF3) | IKZF2 substrate protein remaining % (IKZF2) | CK1a substrate protein remaining % (CK1α) |
| --- | --- | --- | --- | --- | --- | --- |
| O=C1CCC(N2C(=O)c3ccc(CN4CCN(c5ncc(Cl)cc5Cl)CC4)cc3C2=O)C(=O)N1 (stereo not drawn) [GT-06532, 5-((4-(3,5-dichloropyridin-2-yl)piperazin-1-yl)methyl)-2-(2,6-dioxopiperidin-3-yl)isoindoline-1,3-dione] | B (80%< substrate protein remaining %≤ 100%) | A (0% ≤ substrate protein remaining % ≤ 80%) | B (80%< substrate protein remaining %≤ 100%) | B (80%< substrate protein remaining %≤ 100%) | B (80%< substrate protein remaining %≤ 100%) | B (80%< substrate protein remaining %≤ 100%) |
| O=C1CCC(N2C(=O)c3ccc(CN4CCC(c5ccnc(F)c5F)CC4)cc3C2=O)C(=O)N1 (stereo not drawn) [GT-06613, 5-((4-(2,3-difluoropyridin-4-yl)piperidin-1-yl)methyl)-2-(2,6-dioxopiperidin-3-yl)isoindoline-1,3-dione] | B (80%< substrate protein remaining %≤ 100%) | A (0% ≤ substrate protein remaining % ≤ 80%) | B (80%< substrate protein remaining %≤ 100%) | B (80%< substrate protein remaining %≤ 100%) | B (80%< substrate protein remaining %≤ 100%) | B (80%< substrate protein remaining %≤ 100%) |
| O=C1CCC(N2C(=O)c3ccc(CN4CCN(c5ccc(Cl)cc5Cl)CC4)cc3C2=O)C(=O)N1 (stereo not drawn) [GT-06355, 5-((4-(2,4-dichlorophenyl)piperazin-1-yl)methyl)-2-(2,6-dioxopiperidin-3-yl)isoindoline-1,3-dione] | B (80%< substrate protein remaining %≤ 100%) | A (0% ≤ substrate protein remaining % ≤ 80%) | B (80%< substrate protein remaining %≤ 100%) | B (80%< substrate protein remaining %≤ 100%) | B (80%< substrate protein remaining %≤ 100%) | B (80%< substrate protein remaining %≤ 100%) |
| O=C1CCC(N2C(=O)c3ccc(CN4CCN(c5ncccc5C(F)(F)F)CC4)cc3C2=O)C(=O)N1 (stereo not drawn) [GT-06529, 2-(2,6-dioxopiperidin-3-yl)-5-((4-(3-(trifluoromethyl)pyridin-2-yl)piperazin-1-yl)methyl)isoindoline-1,3-dione] | A (0% ≤ substrate protein remaining % ≤ 80%) | A (0% ≤ substrate protein remaining % ≤ 80%) | B (80%< substrate protein remaining %≤ 100%) | A (0% ≤ substrate protein remaining % ≤ 80%) | A (0% ≤ substrate protein remaining % ≤ 80%) | B (80%< substrate protein remaining %≤ 100%) |
| O=C1CCC(N2C(=O)c3ccc(CN4CCC(c5cccc(Br)c5)CC4)cc3C2=O)C(=O)N1 (stereo not drawn) [GT-06369, 5-((4-(3-bromophenyl)piperidin-1-yl)methyl)-2-(2,6-dioxopiperidin-3-yl)isoindoline-1,3-dione] | A (0% ≤ substrate protein remaining % ≤ 80%) | A (0% ≤ substrate protein remaining % ≤ 80%) | A (0% ≤ substrate protein remaining % ≤ 80%) | A (0% ≤ substrate protein remaining % ≤ 80%) | A (0% ≤ substrate protein remaining % ≤ 80%) | A (0% ≤ substrate protein remaining % ≤ 80%) |
| Cc1nc(N2CCN(Cc3ccc4c(c3)C(=O)N(C3CCC(=O)NC3=O)C4=O)CC2)c2ccsc2n1 (stereo not drawn) [GT-06347, 2-(2,6-dioxopiperidin-3-yl)-5-((4-(2-methylthieno[2,3-d]pyrimidin-4-yl)piperazin-1-yl)methyl)isoindoline-1,3-dione] | B (80%< substrate protein remaining %≤ 100%) | B (80%< substrate protein remaining %≤ 100%) | A (0% ≤ substrate protein remaining % ≤ 80%) | A (0% ≤ substrate protein remaining % ≤ 80%) | A (0% ≤ substrate protein remaining % ≤ 80%) | B (80%< substrate protein remaining %≤ 100%) |
| O=C1CCC(N2C(=O)c3ccc(CN4CCN(c5cccc(Cl)n5)CC4)cc3C2=O)C(=O)N1 (stereo not drawn) [GT-06523, 5-((4-(6-chloropyridin-2-yl)piperazin-1-yl)methyl)-2-(2,6-dioxopiperidin-3-yl)isoindoline-1,3-dione] | B (80%< substrate protein remaining %≤ 100%) | A (0% ≤ substrate protein remaining % ≤ 80%) | A (0% ≤ substrate protein remaining % ≤ 80%) | B (80%< substrate protein remaining %≤ 100%) | B (80%< substrate protein remaining %≤ 100%) | B (80%< substrate protein remaining %≤ 100%) |
| O=C1CCC(N2C(=O)c3ccc(CN4CCN(c5ccnc(F)c5F)CC4)cc3C2=O)C(=O)N1 (stereo not drawn) [GT-06535, 5-((4-(2,3-difluoropyridin-4-yl)piperazin-1-yl)methyl)-2-(2,6-dioxopiperidin-3-yl)isoindoline-1,3-dione] | B (80%< substrate protein remaining %≤ 100%) | B (80%< substrate protein remaining %≤ 100%) | B (80%< substrate protein remaining %≤ 100%) | A (0% ≤ substrate protein remaining % ≤ 80%) | A (0% ≤ substrate protein remaining % ≤ 80%) | B (80%< substrate protein remaining %≤ 100%) |
| O=C1CCC(N2C(=O)c3ccc(CN4CCN(c5cccc(F)c5)CC4)cc3C2=O)C(=O)N1 (stereo not drawn) [GT-06291, 2-(2,6-dioxopiperidin-3-yl)-5-((4-(3-fluorophenyl)piperazin-1-yl)methyl)isoindoline-1,3-dione] | B (80%< substrate protein remaining %≤ 100%) | A (0% ≤ substrate protein remaining % ≤ 80%) | B (80%< substrate protein remaining %≤ 100%) | B (80%< substrate protein remaining %≤ 100%) | B (80%< substrate protein remaining %≤ 100%) | B (80%< substrate protein remaining %≤ 100%) |
| O=C1CCC(N2C(=O)c3ccc(CN4CCN(c5ccccn5)CC4)cc3C2=O)C(=O)N1 (stereo not drawn) [GT-06521, 2-(2,6-dioxopiperidin-3-yl)-5-((4-(pyridin-2-yl)piperazin-1-yl)methyl)isoindoline-1,3-dione] | B (80%< substrate protein remaining %≤ 100%) | A (0% ≤ substrate protein remaining % ≤ 80%) | B (80%< substrate protein remaining %≤ 100%) | B (80%< substrate protein remaining %≤ 100%) | B (80%< substrate protein remaining %≤ 100%) | B (80%< substrate protein remaining %≤ 100%) |
| O=C1CCC(N2C(=O)c3ccc(CN4CCC(c5noc6ccccc56)CC4)cc3C2=O)C(=O)N1 (stereo not drawn) [GT-06627, 5-((4-(benzo[d]isoxazol-3-yl)piperidin-1-yl)methyl)-2-(2,6-dioxopiperidin-3-yl)isoindoline-1,3-dione] | B (80%< substrate protein remaining %≤ 100%) | A (0% ≤ substrate protein remaining % ≤ 80%) | B (80%< substrate protein remaining %≤ 100%) | B (80%< substrate protein remaining %≤ 100%) | B (80%< substrate protein remaining %≤ 100%) | B (80%< substrate protein remaining %≤ 100%) |
| O=C1CCC(N2C(=O)c3ccc(CN4CC5CCC4CN5c4cccc(Cl)c4Cl)cc3C2=O)C(=O)N1 (stereo not drawn) [GT-06692, 5-((5-(2,3-dichlorophenyl)-2,5-diazabicyclo[2.2.2]octan-2-yl)methyl)-2-(2,6-dioxopiperidin-3-yl)isoindoline-1,3-dione] | A (0% ≤ substrate protein remaining % ≤ 80%) | A (0% ≤ substrate protein remaining % ≤ 80%) | B (80%< substrate protein remaining %≤ 100%) | B (80%< substrate protein remaining %≤ 100%) | A (0% ≤ substrate protein remaining % ≤ 80%) | B (80%< substrate protein remaining %≤ 100%) |
| O=C1CCC(N2C(=O)c3ccc(CN4CCN(c5nccc(I)c5F)CC4)cc3C2=O)C(=O)N1 (stereo not drawn) [GT-06533, 2-(2,6-dioxopiperidin-3-yl)-5-((4-(3-fluoro-4-iodopyridin-2-yl)piperazin-1-yl)methyl)isoindoline-1,3-dione] | B (80%< substrate protein remaining %≤ 100%) | A (0% ≤ substrate protein remaining % ≤ 80%) | B (80%< substrate protein remaining %≤ 100%) | B (80%< substrate protein remaining %≤ 100%) | B (80%< substrate protein remaining %≤ 100%) | B (80%< substrate protein remaining %≤ 100%) |
